Assay results taken from US20260374781A1, “NOVEL TRIHETEROCYCLIC COMPOUNDS” (IDENCE CO., LTD., priority 2022, published 2026).

Legend:
AsPC-1 cells = assay: Cell Proliferation Assay, AsPC-1 (CellTiter-Glo 2.0 viability); type: cell-based; conditions: AsPC-1 pancreatic cancer (KRAS G12D mutation)
Experimental: (§1) Test Example 3: Cell Proliferation Assay
(§2) Cell viability testing of test compounds in AsPC-1 pancreatic cancer (KRAS G12D mutation) or SW480 colon cancer (KRAS G12V mutation) cells for 72 hours
(§3) The reference compound Staurosporine was purchased from Sigma-Aldrich (Saint Louis, MI), and CellTiter-Glo® 2.0 Luminescent cell viability assay reagent (cat #G9243) was purchased from Promega (Madison, WI). AsPC-1 and SW480 cell lines were purchased from American Type Culture Collection (Manassas, VA). AsPC-1 cells were cultured with RPMI-1640 (ATCC, cat #30-2001) and SW480 cells were cultured with DMEM (ATCC cat #30-2002).
(§4) A medium supplemented with 10% FBS (Sigma-Aldrich, cat #F2442) and 100 µg/mL of penicillin-streptomycin (Sigma-Aldrich, cat #P4333) was used. Cells were cultured at 37 °C in a humidified atmosphere of 5% CO2 and 95% air.
(§5) • 1. The test compound and reference compound, Staurosporine were dissolved in DMSO solution to prepare 20 mM (test compound) and 10 mM (control compound, Staurosporine) in the Source Plate and diluted with DMSO to 3-fold and 10 doses. • 2. From the Source Plate, 10 volumes of 125 nL test compound or 25 nL reference compound were dispensed into wells of a 384-well culture plate (VWR, cat #82050-076) using Echo 655. • 3. 25 μL of culture medium including 2000 AsPC-1 or SW480 cells was dispensed into each 384-well cell culture plate. • 4. Cells were cultured with the compound for 72 hours at 37 °C and 5% CO2 conditions. • 5. 25 μL of CellTiter-Glo 2.0 reagent was added to each well of the plate. • 6. The contents were mixed for 2 minutes on an orbital shaker, and the luminescence signal was stabilized at room temperature for 15 minutes. • 7. Luminescence signals were measured with an Envision 2104 Multilabel Reader (PerkinElmer, Santa Clara, CA), and the number of surviving cells was determined through quantification of ATP present in each culture. • 8. IC50 values were calculated based on the Sigmoidal dose-response equation in the GraphPad Prism 4 program.

SW480 cells = assay: Cell Proliferation Assay, SW480 (CellTiter-Glo 2.0 viability); type: cell-based; conditions: Homo sapiens; SW480 colon cancer (KRAS G12V mutation); 72 hours
Experimental: as §1, §2, §3, §4, §5

SMILES	IC50 (AsPC-1 cells; Homo sapiens, ASPC1, 72 h) [nM]	IC50 (SW480 cells) [nM]	IC50 (AsPC-1 cells; 72 hours) [nM]
C#Cc1c(F)ccc2cc(O)cc(-c3nc4c5c(nc(OC[C@@]67CCCN6C[C@H](F)C7)nc5c3F)N([C@H](C)c3cccnc3N)C[C@H](C)O4)c12 [Example 6a, 4-((S)-10-((R)-1-(2-aminopyridin-3-yl)ethyl)-4-fluoro-2-(((2R,7aS)-2-fluorotetrahydro-1H-pyrrolizin-7a(5H)-yl)methoxy)-8-methyl-9,10-dihydro-8H-7-oxa-1,3,6,10-tetraazacyclohepta[de]naphthalen-5-yl)-5-ethynyl-6-fluoronaphthalen-2-ol]	1000 to 10000	1000 to 10000	–
C#Cc1c(F)ccc2cc(O)cc(-c3nc4c5c(nc(OCC6(CN7CCOCC7)CC6)nc5c3F)N(C(C)c3cccnc3N)CCO4)c12 (stereo not drawn) [Example 12, 4-(10-(1-(2-aminopyridin-3-yl)ethyl)-4-fluoro-2-((1-(morpholinomethyl)cyclopropyl)methoxy)-9,10-dihydro-8H-7-oxa-1,3,6,10-tetraazacyclohepta[de]naphthalen-5-yl)-5-ethynyl-6-fluoronaphthalen-2-ol]	1000 to 10000	< 1000	–
CCc1c(F)ccc2cc(O)cc(-c3nc4c5c(nc(OC[C@@]67CCCN6C[C@H](OC)C7)nc5c3F)N(C(C)c3cccnc3N)CCO4)c12 (stereo partly drawn) [Example 17, 4-(10-(1-(2-aminopyridin-3-yl)ethyl)-4-fluoro-2-(((2R,7aS)-2-methoxytetrahydro-1H-pyrrolizin-7a(5H)-yl)methoxy)-9,10-dihydro-8H-7-oxa-1,3,6,10-tetraazacyclohepta[de]naphthalen-5-yl)-5-ethyl-6-fluoronaphthalen-2-ol]	< 1000	< 1000	–
C#Cc1c(F)ccc2cc(O)cc(-c3nc4c5c(nc(OCC6C[C@@H](F)CN6C)nc5c3F)N(C(C)c3cccnc3N)CCO4)c12 (stereo partly drawn) [Example 18, 4-(10-(1-(2-aminopyridin-3-yl)ethyl)-4-fluoro-2-(((4R)-4-fluoro-1-methylpyrrolidin-2-yl)methoxy)-9,10-dihydro-8H-7-oxa-1,3,6,10-tetraazacyclohepta[de]naphthalen-5-yl)-5-ethynyl-6-fluoronaphthalen-2-ol]	1000 to 10000	< 1000	–
C#Cc1c(F)ccc2cc(O)cc(-c3nc4c5c(nc(OC[C@@]67CCCN6C[C@H](F)C7)nc5c3F)N(C(C)c3ccccc3N)CCO4)c12 (stereo partly drawn) [Example 20, 4-(10-(1-(2-aminophenyl)ethyl)-4-fluoro-2-(((2R,7aS)-2-fluorotetrahydro-1H-pyrrolizin-7a(5H)-yl)methoxy)-9,10-dihydro-8H-7-oxa-1,3,6,10-tetraazacyclohepta[de]naphthalen-5-yl)-5-ethynyl-6-fluoronaphthalen-2-ol]	–	< 1000	–
CCc1c(F)ccc2cc(O)cc(-c3nc4c5c(nc(OCC6C[C@@H](F)CN6C)nc5c3F)N(C(C)c3cccnc3N)CCO4)c12 (stereo partly drawn) [Example 22, 4-(10-(1-(2-aminopyridin-3-yl)ethyl)-4-fluoro-2-(((4R)-4-fluoro-1-methylpyrrolidin-2-yl)methoxy)-9,10-dihydro-8H-7-oxa-1,3,6,10-tetraazacyclohepta[de]naphthalen-5-yl)-5-ethyl-6-fluoronaphthalen-2-ol]	1000 to 10000	< 1000	–
CCc1c(F)ccc2cc(O)cc(-c3nc4c5c(nc(OC[C@@]67CCCN6C[C@H](F)C7)nc5c3F)N(C(C)c3cc(C)cnc3N)CCO4)c12 (stereo partly drawn) [Example 23, 4-(10-(1-(2-amino-5-methylpyridin-3-yl)ethyl)-4-fluoro-2-(((2R,7aS)-2-fluorotetrahydro-1H-pyrrolizin-7a(5H)-yl)methoxy)-9,10-dihydro-8H-7-oxa-1,3,6,10-tetraazacyclohepta[de]naphthalen-5-yl)-5-ethyl-6-fluoronaphthalen-2-ol]	1000 to 10000	< 1000	–
CCc1c(F)ccc2cc(O)cc(-c3nc4c5c(nc(OCC6(C#N)CCOCC6)nc5c3F)N(C(C)c3cccnc3N)CCO4)c12 (stereo not drawn) [Example 24, 4-(((10-(1-(2-aminopyridin-3-yl)ethyl)-5-(8-ethyl-7-fluoro-3-hydroxynaphthalen-1-yl)-4-fluoro-9,10-dihydro-8H-7-oxa-1,3,6,10-tetraazacyclohepta[de]naphthalen-2-yl)oxy)methyl)tetrahydro-2H-pyran-4-carbonitrile]	> 10000	1000 to 10000	–
CCc1c(F)ccc2cc(O)cc(-c3nc4c5c(nc(OC[C@@H]6CC[C@H]7COCCN76)nc5c3F)N(C(C)c3cccnc3N)CCO4)c12 (stereo partly drawn) [Example 25, 4-(10-(1-(2-aminopyridin-3-yl)ethyl)-4-fluoro-2-(((6S,8aS)-hexahydro-1H-pyrrolo[2,1-c][1,4]oxazin-6-yl)methoxy)-9,10-dihydro-8H-7-oxa-1,3,6,10-tetraazacyclohepta[de]naphthalen-5-yl)-5-ethyl-6-fluoronaphthalen-2-ol]	1000 to 10000	< 1000	–

Other lines, results leading:

IC50 (AsPC-1 cells; Homo sapiens, ASPC1, 72 h) [nM]	IC50 (SW480 cells) [nM]	IC50 (AsPC-1 cells; 72 hours) [nM]	SMILES
< 1000	< 1000	–	C#Cc1c(F)ccc2cc(O)cc(-c3nc4c5c(nc(OC[C@@]67CCCN6C[C@H](F)C7)nc5c3F)N([C@H](C)c3cccnc3N)CCO4)c12 [Example 13a, 4-(10-((R)-1-(2-aminopyridin-3-yl)ethyl)-4-fluoro-2-(((2R,7aS)-2-fluorotetrahydro-1H-pyrrolizin-7a(5H)-yl)methoxy)-9,10-dihydro-8H-7-oxa-1,3,6,10-tetraazacyclohepta[de]naphthalen-5-yl)-5-ethynyl-6-fluoronaphthalen-2-ol]
< 1000	< 1000	–	CCc1c(F)ccc2cc(O)cc(-c3nc4c5c(nc(OC[C@@]67CCCN6C[C@H](F)C7)nc5c3F)N([C@H](C)c3cccnc3N)CCO4)c12 [Example 14a, 4-(10-((R)-1-(2-aminopyridin-3-yl)ethyl)-4-fluoro-2-(((2R,7aS)-2-fluorotetrahydro-1H-pyrrolizin-7a(5H)-yl)methoxy)-9,10-dihydro-8H-7-oxa-1,3,6,10-tetraazacyclohepta[de]naphthalen-5-yl)-5-ethyl-6-fluoronaphthalen-2-ol]
< 1000	< 1000	–	CC(c1cccnc1N)N1CCOc2c(Cl)c(-c3ccc(F)c4sc(N)c(C#N)c34)c(F)c3nc(OC[C@@]45CCCN4C[C@H](F)C5)nc1c23 (stereo partly drawn) [Example 29a, (4R)-2-amino-4-(4-(1-(2-aminopyridin-3-yl)ethyl)-8-chloro-10-fluoro-2-(((2R,7aS)-2-fluorotetrahydro-1H-pyrrolizin-7a(5H)-yl)methoxy)-5,6-dihydro-4H-[1,4]oxazepino[5,6,7-de]quinazolin-9-yl)-7-fluorobenzo[b]thiophene-3-carbonitrile]
–	–	1000 to 10000	CC(c1cccnc1N)N1CCOc2c(Cl)c(-c3ccc(F)c4sc(N)c(C#N)c34)c(F)c3nc(OC[C@@]45CCCN4C[C@H](F)C5)nc1c23 (stereo partly drawn) [Example 29b, (4S)-2-amino-4-(4-(1-(2-aminopyridin-3-yl)ethyl)-8-chloro-10-fluoro-2-(((2R,7aS)-2-fluorotetrahydro-1H-pyrrolizin-7a(5H)-yl)methoxy)-5,6-dihydro-4H-[1,4]oxazepino[5,6,7-de]quinazolin-9-yl)-7-fluorobenzo[b]thiophene-3-carbonitrile]
